From patent publication US20170190671A1, “BIS(ARYL)CATECHOL DERIVATIVES AS HERBICIDES” (E I DU PONT DE NEMOURS AND COMPANY, priority 2014, published 2017)

Assays:
Assay in all cases: Test D preemergence
Type in all cases: in vivo
Conditions in all cases: scale 0 to 100
[1] = test system: winter barley (Hordeum vulgare)
Procedure, shortened: (§1)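 Plants were kept in a controlled environment for 14 to 21 days after spraying, then compared with untreated controls. Scores run from 0, no effect, to 100, complete control; preemergence pots used silt loam and postemergence pots a peat-based medium.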

[2] = test system: blackgrass (Alopecurus myosuroides)
Procedure, shortened: as §1

[3] = test system: cutleaf geranium (Geranium dissectum)
Procedure, shortened: as §1

[4] = test system: field violet (Viola arvensis)
Procedure, shortened: as §1

[5] = test system: Italian ryegrass (Lolium multiflorum)
Procedure, shortened: as §1

[6] = test system: speedwell (bird's-eye speedwell, Veronica persica)
Procedure, shortened: as §1

[7] = test system: wild buckwheat (Polygonum convolvulus)
Procedure, shortened: as §1

[8] = test system: green foxtail (Setaria viridis)
Procedure, shortened: as §1

[9] = test system: windgrass (Apera spica-venti)
Procedure, shortened: as §1

[10] = test system: winter wheat (Triticum aestivum)
Procedure, shortened: as §1

kochia (Kochia scoparia) = test system: kochia (Kochia scoparia)
Procedure, shortened: as §1

[11] = test system: lambsquarters (Chenopodium album)
Procedure, shortened: as §1

[12] = test system: wild radish (Raphanus raphanistrum)
Procedure, shortened: as §1

[13] = test system: oilseed rape (Brassica napus)
Procedure, shortened: as §1

[14] = test system: downy bromegrass (Bromus tectorum)
Procedure, shortened: as §1

[15] = test system: deadnettle (henbit deadnettle, Lamium amplexicaule)
Procedure, shortened: as §1

[16] = test system: wild mustard (Sinapis arvensis)
Procedure, shortened: as §1

FC(F)(F)c1cnc(Oc2c(Br)cccc2Oc2ncc(Cl)cn2)nc1 [Compound 24]
Plant response rating, Barley, Winter ([1]; 16 g ai/ha): 10 | Plant response rating, Barley, Winter ([1]; 31 g ai/ha): 15 | Plant response rating, Barley, Winter ([1]; 62 g ai/ha): 25 | Plant response rating, Barley, Winter ([1]; 125 g ai/ha): 70 | Plant response rating, Blackgrass ([2]; 16 g ai/ha): 15 | Plant response rating, Blackgrass ([2]; 31 g ai/ha): 25 | Plant response rating, Blackgrass ([2]; 62 g ai/ha): 35 | Plant response rating, Blackgrass ([2]; 125 g ai/ha): 55 | Plant response rating, Geranium, Cutleaf ([3]; 16 g ai/ha): 75 | Plant response rating, Geranium, Cutleaf ([3]; 31 g ai/ha): 75 | Plant response rating, Geranium, Cutleaf ([3]; 62 g ai/ha): 90 | Plant response rating, Geranium, Cutleaf ([3]; 125 g ai/ha): 100 | Plant response rating, Field Violet ([4]; 16 g ai/ha): 20 | Plant response rating, Field Violet ([4]; 31 g ai/ha): 20 | Plant response rating, Field Violet ([4]; 62 g ai/ha): 75 | Plant response rating, Field Violet ([4]; 125 g ai/ha): 100 | Plant response rating, Ryegrass, Italian ([5]; 16 g ai/ha): 10 | Plant response rating, Ryegrass, Italian ([5]; 31 g ai/ha): 15 | Plant response rating, Ryegrass, Italian ([5]; 62 g ai/ha): 25 | Plant response rating, Ryegrass, Italian ([5]; 125 g ai/ha): 65 | Plant response rating, Speedwell ([6]; 16 g ai/ha): 35 | Plant response rating, Speedwell ([6]; 31 g ai/ha): 100 | Plant response rating, Speedwell ([6]; 62 g ai/ha): 100 | Plant response rating, Speedwell ([6]; 125 g ai/ha): 100 | Plant response rating, Buckwheat, Wild ([7]; 16 g ai/ha): 10 | Plant response rating, Buckwheat, Wild ([7]; 62 g ai/ha): 20 | Plant response rating, Buckwheat, Wild ([7]; 125 g ai/ha): 100 | Plant response rating, Foxtail, Green ([8]; 16 g ai/ha): 10 | Plant response rating, Foxtail, Green ([8]; 31 g ai/ha): 35 | Plant response rating, Foxtail, Green ([8]; 62 g ai/ha): 75 | Plant response rating, Foxtail, Green ([8]; 125 g ai/ha): 85 | Plant response rating, Windgrass ([9]; 16 g ai/ha): 5 | Plant response rating, Windgrass ([9]; 31 g ai/ha): 15 | Plant response rating, Windgrass ([9]; 62 g ai/ha): 25 | Plant response rating, Windgrass ([9]; 125 g ai/ha): 85 | Plant response rating, Wheat, Winter ([10]; 16 g ai/ha): 0 | Plant response rating, Wheat, Winter ([10]; 31 g ai/ha): 0 | Plant response rating, Wheat, Winter ([10]; 62 g ai/ha): 0 | Plant response rating, Wheat, Winter ([10]; 125 g ai/ha): 10 | Plant response rating, Kochia (kochia (Kochia scoparia); 16 g ai/ha): 0 | Plant response rating, Kochia (kochia (Kochia scoparia); 31 g ai/ha): 25 | Plant response rating, Kochia (kochia (Kochia scoparia); 62 g ai/ha): 60 | Plant response rating, Kochia (kochia (Kochia scoparia); 125 g ai/ha): 100 | Plant response rating, Lambsquarters ([11]; 16 g ai/ha): 100 | Plant response rating, Lambsquarters ([11]; 31 g ai/ha): 100 | Plant response rating, Lambsquarters ([11]; 62 g ai/ha): 100 | Plant response rating, Lambsquarters ([11]; 125 g ai/ha): 100 | Plant response rating, Radish, Wild ([12]; 16 g ai/ha): 0 | Plant response rating, Radish, Wild ([12]; 31 g ai/ha): 20 | Plant response rating, Radish, Wild ([12]; 62 g ai/ha): 45 | Plant response rating, Radish, Wild ([12]; 125 g ai/ha): 70 | Plant response rating, Oilseed Rape ([13]; 16 g ai/ha): 0 | Plant response rating, Oilseed Rape ([13]; 31 g ai/ha): 15 | Plant response rating, Oilseed Rape ([13]; 62 g ai/ha): 20 | Plant response rating, Oilseed Rape ([13]; 125 g ai/ha): 80 | Plant response rating, Bromegrass, Downy ([14]; 16 g ai/ha): 20 | Plant response rating, Bromegrass, Downy ([14]; 31 g ai/ha): 35 | Plant response rating, Bromegrass, Downy ([14]; 62 g ai/ha): 35 | Plant response rating, Bromegrass, Downy ([14]; 125 g ai/ha): 45 | Plant response rating, Deadnettle ([15]; 16 g ai/ha): 30 | Plant response rating, Deadnettle ([15]; 31 g ai/ha): 60 | Plant response rating, Deadnettle ([15]; 62 g ai/ha): 100 | Plant response rating, Deadnettle ([15]; 125 g ai/ha): 100 | Plant response rating, Mustard, Wild ([16]; 16 g ai/ha): 15 | Plant response rating, Mustard, Wild ([16]; 31 g ai/ha): 35 | Plant response rating, Mustard, Wild ([16]; 62 g ai/ha): 55 | Plant response rating, Mustard, Wild ([16]; 125 g ai/ha): 100
